Where “and” joins values, the source holds several entries; their conditions need not be identical. Identical values can stand only once. Entries after “also recorded” stand apart in the source; their conditions may differ. Like-named read-outs stand apart in the source and are kept apart here.
What was measured:
[1] = test system: C57 BL/6J male mice; test: Forced swimming experiment in mice; type: in vivo
Description: 1) Forced Swimming Experiment: Also Known as Despair Experiment, an Experiment Usually Used to Test Depression-Like Behavior of Mice
• Animal: C57 BL/6J male mice (18-20 g)
Intraperitoneal injection (i.p)

[2] = test system: pyramidal neurons in prefrontal PrL brain area; test: Brain slice electrophysiology, sEPSC of mPFC pyramidal neurons; type: cell-based, mice; conditions: 10 nM, 10 μM, 150 μM; for sEPSC distribution frequency: concentration-dependent, significant at 150 μM
Description: 2) Brain Slice Electrophysiological Experiment: For Detecting Effect of Compound M2 on mPFC Excitatory Synaptic Transmission • Animal: neonatal mice C57 BL/6J (20-30 days). • Instrument: vibratome (Leica), brain slice electrophysiological system (Axon). • Brain slice electrophysiological experiment method • SEPSC experiment method: Neonatal C57 mice were anesthetized and then perfused with artificial cerebrospinal fluid (ACSF). After decapitation, brain tissue was taken quickly and sliced by vibratome, with a thickness of a brain slice being 300 μm. After the brain slices were incubated at 28 °C for 1 h, whole-cell recordings of mPFC pyramidal neurons were made using a voltage clamp (−70 mV) through a brain slice electrophysiological system. The baseline recording time was 6 min, and then a drug to be tested was added through a perfusion system (the drug was dissolved using ACSF), and the recording time after adding the drug was 6-10 min. Recorded data was analyzed using Minianalysis software, and effects of the drug to be tested on sEPSC frequency and amplitude of medial prefrontal pyramidal neurons in C57 mice were compared.
All data analysis was done using spss data processing software, and data was expressed by Mean±s.e.m. One-way ANOVA was used to analyze the effect of compound M2 and the effect of compound M2 under the action of dopamine receptor antagonists on sEPSC current: and paired t test was used to analyze sEPSC experimental results. * was marked when p<0.05.
During the experiment, 10 μM Bicuculine was added to the solution to block GABA receptor, so as to record sEPSC of pyramidal neurons. The experiment investigated effects of different concentrations of compound M2 on spontaneous excitatory postsynaptic […] (sEPSC) of pyramidal neurons in prefrontal PrL brain area, as shown in FIG. 2.

[3] = test system: mTOR signaling pathway; test: Western blot of prefrontal proteins after single administration; type: in vivo, mice; conditions: 30 mg/kg
Experimental: 3) Western Blot: For Detecting Effect of Compound M2 on a Change in mPFC Protein Content • Animals: C57 BL/6J male mice (18-20 g), divided into four groups, i.e. the control group, fluoxetine group, compound M2 (30 mg/kg) group, and esketamine group. • Primary antibodies for experimental use
0.5 h/24 h after administration of C57 mice, brain tissue was sampled from the prefrontal brain area. After tissue samples were lysed and homogenized, quantification of proteins was performed using the BCA method, and changes in protein content in the prefrontal brain area 0.5 h/24 h after intraperitoneal administration of compound M2 were detected by steps of SDS-PAGE gel preparation, sample loading and electrophoresis, membrane transfer, sealing, primary antibody incubation, secondary antibody incubation, protein detection (development and fixation), etc.

[4] = Pharmacokinetics and absolute bioavailability in rats (LC-MS/MS); type: in vivo; conditions: rat; for MRT inf: read-out: MRT0-∞
Description: A LC-MS/MS method for determination of compound I-5 and compound M2 in rat plasma was established through experiments to investigate the pharmacokinetic characteristics and absolute bioavailability of compounds in rats.
20 SPF-grade SD male rats (body weight 220±20 g), purchased from Beijing Vital River Laboratory Animal Technology Co., Ltd.
• Chromatographic column: waters BEH C18 1.7 μm; 2.1×100 mm Column • Internal standard: D-I-5 (deuterated compound I-5, with the following structural formula)
20 SD rats were randomly divided into 4 groups, with 5 rats in each group. […]
50 μL plasma was taken, 50 μL D-I-5 (20 ng/mL dissolved in acetonitrile) was added, the mixture was whirled for 30 s, then 100 μL acetonitrile was added; the mixture was fully whirled for 2 min, and was centrifuged at 4° C. at 12000 r/min for 3 min, 50 μL supernatant was taken, 50 μL aqueous solution was added for dilution, followed by whirling for Imin, and 4 μL sample was injected.
The mean plasma concentration-time curves of rats after oral intragastric administration and intravenous administration were respectively shown in FIGS. 8 and 9. Data were processed using DAS 3.0 pharmacokinetic software (Chinese Professional Committee of Mathematical Pharmacology, Shanghai, China), and statistical moment parameters of the non-compartmental model were calculated, Cmax and Tmax being measured values.

[5] = male, SD, plasma, po, intragastric administration 12.5 mg/kg, n = 5
[6] = male, SD, plasma, intravenous administration 2.5 mg/kg, n = 5
[7] = male, Sprague-Dawley (SD), plasma, po, intragastric administration 12.5 mg/kg, n = 5
[8] = male, Sprague-Dawley (SD), plasma, intravenous administration 2.5 mg/kg, n = 5

bioavailability ([4]; male, SD, plasma, oral, absolute bioavailability, intragastric 12.5 mg/kg vs intravenous 2.5 mg/kg, read-out: F (bioavailability, %)): 40.8% | AUC(0-t) [4, 5]: 1080 ± 373 ng·h/mL | Tmax [4, 5]: 21 min | half-life [4, 5]: 61.8 ± 20.4 min | C0 [4, 6]: 1640 ± 319 ng/mL | half-life [4, 6]: 14.4 ± 1.8 min | concentration at 0.08 h ([4]; male, SD, plasma, iv, 2.5 mg/kg, single intravenous 2.5 mg/kg, 0.08 h, read-out: Plasma concentration, Mean): 1210 ng/mL | concentration at 0.08 h ([4]; male, SD, plasma, iv, 2.5 mg/kg, single intravenous 2.5 mg/kg, 0.08 h, read-out: Plasma concentration, individual rats): 1090 ng/mL | concentration at 0.25 h ([4]; male, SD, plasma, iv, 2.5 mg/kg, single intravenous 2.5 mg/kg, 0.25 h, read-out: Plasma concentration, Mean): 639 ng/mL | concentration at 0.25 h ([4]; male, SD, plasma, iv, 2.5 mg/kg, single intravenous 2.5 mg/kg, 0.25 h, read-out: Plasma concentration, individual rats): 575 ng/mL | concentration at 0.5 h ([4]; male, SD, plasma, iv, 2.5 mg/kg, single intravenous 2.5 mg/kg, 0.50 h): 315 ng/mL | concentration at 1 h ([4]; male, SD, plasma, iv, 2.5 mg/kg, single intravenous 2.5 mg/kg, 1 h, read-out: Plasma concentration, Mean): 79 ng/mL | concentration at 2 h ([4]; male, SD, plasma, iv, 2.5 mg/kg, single intravenous 2.5 mg/kg, 2 h): 5.46 ng/mL | concentration at 3 h ([4]; male, SD, plasma, iv, 2.5 mg/kg, single intravenous 2.5 mg/kg, 3 h): 3.21 ng/mL | concentration at 0.08 h ([4]; male, SD, plasma, oral, 12.5 mg/kg, single intragastric 12.5 mg/kg, 0.08 h, read-out: Plasma concentration, Mean): 191 ng/mL | concentration at 0.25 h ([4]; male, SD, plasma, oral, 12.5 mg/kg, single intragastric 12.5 mg/kg, 0.25 h, read-out: Plasma concentration, Mean): 398 ng/mL | concentration at 0.5 h ([4]; male, SD, plasma, oral, 12.5 mg/kg, single intragastric 12.5 mg/kg, 0.50 h): 387 ng/mL | concentration at 1 h ([4]; male, SD, plasma, oral, 12.5 mg/kg, single intragastric 12.5 mg/kg, 1 h, read-out: Plasma concentration, Mean): 211 ng/mL | concentration at 1 h ([4]; male, SD, plasma, oral, 12.5 mg/kg, single intragastric 12.5 mg/kg, 1 h, read-out: Plasma concentration, individual rats): 145 ng/mL | concentration at 2 h ([4]; male, SD, plasma, oral, 12.5 mg/kg, single intragastric 12.5 mg/kg, 2 h): 132 ng/mL | concentration at 3 h ([4]; male, SD, plasma, oral, 12.5 mg/kg, single intragastric 12.5 mg/kg, 3 h): 134 ng/mL | concentration at 4 h ([4]; male, SD, plasma, oral, 12.5 mg/kg, single intragastric 12.5 mg/kg, 4 h, read-out: Plasma concentration, Mean): 164 ng/mL | concentration at 6 h ([4]; male, SD, plasma, oral, 12.5 mg/kg, single intragastric 12.5 mg/kg, 6 h): 86.7 ng/mL | concentration at 8 h ([4]; male, SD, plasma, oral, 12.5 mg/kg, single intragastric 12.5 mg/kg, 8 h, read-out: Plasma concentration, Mean): 2.07 ng/mL | concentration at 8 h ([4]; male, SD, plasma, oral, 12.5 mg/kg, single intragastric 12.5 mg/kg, 8 h, read-out: Plasma concentration, individual rats): 5.38 ng/mL | Cmax ([4]; male, SD, plasma, po, 12.5 mg/kg, intragastric administration 12.5 mg/kg, n = 5, read-out: Cmax): 425 ± 137 ng/mL | AUC(0-inf) [4, 7]: 1120 ± 367 ng·h/mL | AUC(0-t) [4, 7]: 1080 ± 373 ng·h/mL | MRT inf [4, 7]: 151 ± 36.6 min | AUC(0-inf) [4, 8]: 532 ± 127 ng·h/mL | AUC(0-t) [4, 8]: 529 ± 130 ng·h/mL | MRT inf [4, 8]: 18.6 ± 3.6 min | Cmax ([4]; intragastric administration 12.5 mg/kg, n = 5, 12.5 mg/kg): 425.47 ± 136.97 ng/mL | Plasma concentration, individual rats ([4]; single intragastric 12.5 mg/kg, 8 h): BLOQ (3×) and 3.64 ng/mL | Plasma concentration, individual rats ([4]; single intravenous 2.5 mg/kg, 4 h): BLOQ | Plasma concentration, individual rats ([4]; single intravenous 2.5 mg/kg, 6 h): BLOQ | Plasma concentration, individual rats ([4]; single intravenous 2.5 mg/kg, 8 h): BLOQ
SMILES: NC(=O)/C=C/c1cc2c(c(C(F)(F)F)c1)OCO2 [Compound M2]
antidepressant-like effect ([1]; 24 h after a single i.p. administration, fluoxetine 10 mg/kg, esketamine 10 mg/kg, M2 3-30 mg/kg): had antidepressant-like effect | immobility time of mice in forced swimming ([1]; 24 h after single i.p. administration, dosage effect, significant at 30 mg/kg, 30 mg/kg): reduce the immobility time; also recorded: significantly reduced | sEPSC distribution amplitude [2]: did not have significant effect | sEPSC distribution frequency [2]: increased | sEPSC distribution frequency ([2]; listed as compound M2): significantly enhance | sEPSC distribution amplitude ([2]; listed as compound M2): does not have a significant effect | medial prefrontal p-TrkB content ([3]; 0.5 h after administration): increased | medial prefrontal p-mTOR content ([3]; 0.5 h after administration): increased | total content (mTOR, TrkB) ([3]; 0.5 h after administration): remaining unchanged | content of medial prefrontal synaptogenesis-related protein PSD95 ([3]; 24 h after single administration): significantly increased | Plasma concentration, individual rats ([4]; single intragastric 12.5 mg/kg, 0.08 h): 78.15 ng/mL and 127.05 ng/mL and 78.40 ng/mL and 240.77 ng/mL and 433.00 ng/mL | Plasma concentration, individual rats ([4]; single intragastric 12.5 mg/kg, 0.25 h): 213.75 ng/mL and 487.46 ng/mL and 212.80 ng/mL and 494.43 ng/mL and 582.67 ng/mL | Plasma concentration, individual rats ([4]; single intragastric 12.5 mg/kg, 0.50 h): 270.87 ng/mL and 411.67 ng/mL and 291.90 ng/mL and 416.38 ng/mL and 542.56 ng/mL | Plasma concentration, individual rats ([4]; single intragastric 12.5 mg/kg, 1 h): 184.82 ng/mL and 165.92 ng/mL and 270.26 ng/mL and 288.12 ng/mL | Plasma concentration, individual rats ([4]; single intragastric 12.5 mg/kg, 2 h): 90.66 ng/mL and 71.40 ng/mL and 131.47 ng/mL and 231.27 ng/mL and 133.28 ng/mL | Plasma concentration, individual rats ([4]; single intragastric 12.5 mg/kg, 3 h): 175.71 ng/mL and 60.26 ng/mL and 194.74 ng/mL and 114.91 ng/mL and 122.55 ng/mL | Plasma concentration, individual rats ([4]; single intragastric 12.5 mg/kg, 4 h): 268.66 ng/mL and 107.99 ng/mL and 188.58 ng/mL and 66.64 ng/mL and 188.12 ng/mL | Plasma concentration, individual rats ([4]; single intragastric 12.5 mg/kg, 6 h): 57.55 ng/mL and 48.74 ng/mL and 11.84 ng/mL and 15.99 ng/mL and 299.46 ng/mL | Plasma concentration, individual rats ([4]; single intravenous 2.5 mg/kg, 0.08 h, 2.5 mg/kg): 1221.94 ng/mL and 1589.64 ng/mL and 991.98 ng/mL and 1170.61 ng/mL | Plasma concentration, individual rats ([4]; single intravenous 2.5 mg/kg, 0.25 h, 2.5 mg/kg): 742.62 ng/mL and 807.81 ng/mL and 497.57 ng/mL and 574.42 ng/mL | Plasma concentration, individual rats ([4]; single intravenous 2.5 mg/kg, 0.50 h, 2.5 mg/kg): 281.81 ng/mL and 435.1 ng/mL and 406.94 ng/mL and 201.98 ng/mL and 248.89 ng/mL | Plasma concentration, individual rats ([4]; single intravenous 2.5 mg/kg, 1 h, 2.5 mg/kg): 74.30 ng/mL and 130.96 ng/mL and 92.59 ng/mL and 39.74 ng/mL and 57.32 ng/mL | Plasma concentration, individual rats ([4]; single intravenous 2.5 mg/kg, 2 h, 2.5 mg/kg): 4.62 ng/mL and 12.27 ng/mL and 2.23 ng/mL and BLOQ and 2.72 ng/mL | Plasma concentration, individual rats ([4]; single intravenous 2.5 mg/kg, 3 h, 2.5 mg/kg): 2.035 ng/mL and 4.403 ng/mL and BLOQ (3×)

— patent publication US20240217946A1, “ANTIDEPRESSANT AND ANXIOLYTIC SUBSTITUTED CINNAMAMIDE COMPOUND” (TASLY PHARMACEUTICAL GROUP CO., LTD., priority 2021, published 2024)
